Values quoted from earlier work, collected in PMC6442678 (Journal of medicinal chemistry, 2018).

Conditions: mice, 24h after injection ref 52

Mn-EDTA-BTA
injected Mn retained: > 50%
